The values below come from publication doi:10.1101/2022.12.01.518659v1 (biorxiv, 2022).

By pIC50 is commonly meant the IC50 on a negative log10 scale, so that one unit is a factor of ten.

pIC50: −log10 of the molar value. Counter-ions that a name gives are not always drawn.

The target of this assay is Atx3 13Q (Homo sapiens, UniProt P54252, OF/POLYQ/Q/TRACT). In words: ThT fluorescence aggregation assay. In kind it is biochemical.
Chain of Atx3 13Q (P54252 whole entry, change not shown): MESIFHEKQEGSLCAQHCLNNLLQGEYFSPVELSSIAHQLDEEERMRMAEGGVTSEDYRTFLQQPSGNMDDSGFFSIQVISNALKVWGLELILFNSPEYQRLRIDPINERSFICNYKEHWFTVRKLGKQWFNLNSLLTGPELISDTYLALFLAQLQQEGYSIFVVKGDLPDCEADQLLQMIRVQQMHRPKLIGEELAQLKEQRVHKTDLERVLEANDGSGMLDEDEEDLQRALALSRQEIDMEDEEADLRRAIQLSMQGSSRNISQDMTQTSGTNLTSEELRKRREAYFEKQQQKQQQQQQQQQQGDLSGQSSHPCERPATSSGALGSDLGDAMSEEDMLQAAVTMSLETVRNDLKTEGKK

The compound `Cc1cc(C2CCCCC2)n(O)c(=O)c1` [ciclopirox ethanolamine] gave a pIC50 of 7.10. As for `NCCc1ccc(O)c(O)c1` [dopamine hydrochloride], the figure is 6.96; as for `O=C(O)CN(CCN(CC(=O)O)CC(=O)O)CCN(CC(=O)O)CC(=O)O` [pentetic acid], 6.92.

In the case of `Cc1ccc(C(=O)c2cc(O)c(O)c([N+](=O)[O-])c2)cc1` [tolcapone], the pIC50 is 7.70.
